Measured values reported in patent US20240270699A1, “COMPOUNDS HAVING N-ARYLPYRIMIDIN-2-AMINE DERIVATIVES AS THERAPEUTIC AGENTS” (Lomond Therapeutics, Inc., priority 2021, published 2024).

Key:
recombinant HPK1 protein = biological target: T1, recombinant HPK1 protein (Homo sapiens, UniProt Q92918); test: Primary assay of HPK1 enzymatic activity inhibition (ADP-Glo luminescence); assay type: biochemical; details: recombinant HPK1, MBP substrate, 1 hour at room temperature
T1 construct: purchased Promega V6398
T1 sequence (Q92918 1-346 limits assumed): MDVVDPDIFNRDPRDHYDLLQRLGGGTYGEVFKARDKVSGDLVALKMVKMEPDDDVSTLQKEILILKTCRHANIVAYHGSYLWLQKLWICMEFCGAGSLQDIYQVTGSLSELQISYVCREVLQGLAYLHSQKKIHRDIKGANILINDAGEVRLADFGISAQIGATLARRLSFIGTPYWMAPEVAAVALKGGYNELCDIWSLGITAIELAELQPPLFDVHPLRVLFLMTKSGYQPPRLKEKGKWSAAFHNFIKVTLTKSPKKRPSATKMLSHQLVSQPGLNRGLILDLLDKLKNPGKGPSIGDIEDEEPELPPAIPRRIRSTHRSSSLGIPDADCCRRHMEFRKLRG

Jurkat cells = test: IL-2 release Jurkat assay (anti-CD3/anti-CD28 stimulation, IL-2 ELISA); assay type: cell-based, human; details: activation with 400 ng/mL aCD3 + 400 ng/mL aCD28, 24 hours

| SMILES | IC50 (recombinant HPK1 protein) | also measured |
| --- | --- | --- |
| CS(=O)(=O)c1ccc(Nc2ncc(C#N)c(N[C@H](CO)c3ccccc3)n2)cc1F [Compound 2, 2-{[3-fluoro-4-(methylsulfonyl)phenyl]amino}-4-{[(1S)-2-hydroxy-1-phenylethyl]amino}pyrimidine-5-carbonitrile] | ≥ 500 nM | – |
| CCOC(=O)c1cnc(Nc2ccc(C(N)=O)c(C)c2)nc1N[C@H](CO)c1ccccc1 [Compound 10, Ethyl 2-(4-carbamoyl-3-methyl-anilino)-4-[[(1S)-2-hydroxy-1-phenyl-ethyl]amino]pyrimidine-5-carboxylate] | 50 to 200 nM | IL-2, pg/mL stimulated (Jurkat cells; Table D: Jurkat, 6 μM of tested compounds, stimulated vehicle = B): D (150 pg/mL≤IL-2) |
| Cc1cc(Nc2ncc([N+](=O)[O-])c(N[C@H](CO)c3ccccc3)n2)ccc1S(C)(=O)=O [Compound 18, (2S)-2-[[2-(3-methyl-4-methylsulfonyl-anilino)-5-nitro-pyrimidin-4-yl]amino]-2-phenyl-ethanol] | 200 to 500 nM | IL-2, pg/mL stimulated (Jurkat cells; Table C: Jurkat, 6 μM of tested compounds, stimulated vehicle = A): D (150 pg/mL≤IL-2) |
| CS(=O)(=O)c1ccc(Nc2ncc(C(=O)O)c(N[C@H](CO)c3ccccc3)n2)cc1F [Compound 42, 2-{[3-fluoro-4-(methylsulfonyl)phenyl]amino}-4-{[(1S)-2-hydroxy-1-phenylethyl]amino}pyrimidine-5-carboxylic Acid] | ≥ 500 nM | – |
| CCOC(=O)c1cnc(Nc2ccc(C(=O)NC)c(C)c2)nc1N[C@H](CO)c1ccccc1 [Compound 48, Ethyl 4-[[(1S)-2-hydroxy-1-phenyl-ethyl]amino]-2-[3-methyl-4-(methylcarbamoyl)anilino]pyrimidine-5-carboxylate] | ≥ 500 nM | – |
| CCOC(=O)c1cnc(Nc2ccc(C(=O)O)c(OC)c2)nc1N[C@H](CO)c1ccccc1 [Compound 62, 4-[[5-ethoxycarbonyl-4-[[(1S)-2-hydroxy-1-phenyl-ethyl]amino]pyrimidin-2-yl]amino]-2-methoxy-benzoic acid] | 200 to 500 nM | – |
| CN1CCc2cc(Nc3ncc(-c4nnco4)c(N[C@H](CO)c4ccccc4)n3)ccc2C1=O [Compound 89, 6-[[4-[[(1S)-2-hydroxy-1-phenyl-ethyl]amino]-5-(1,3,4-oxadiazol-2-yl)pyrimidin-2-yl]amino]-2-methyl-3,4-dihydroisoquinolin-1-one] | < 50 nM | – |
| CCOC(=O)c1cnc(Nc2ccc(S(C)(=O)=O)c(F)c2)nc1N[C@H](C)c1ccccc1 [Compound 97, ethyl 2-(3-fluoro-4-methylsulfonyl-anilino)-4-[[(1R)-1-phenylethyl]amino]pyrimidine-5-carboxylate] | ≥ 500 nM | – |
| CNC(=O)c1cnc(Nc2ccc(C(F)(F)F)c(Cl)c2)nc1N[C@H](CO)c1ccccc1 [Compound 132, 2-{[3-chloro-4-(trifluoromethyl)phenyl]amino}-4-{[(1S)-2-hydroxy-1-phenylethyl]amino}-N-methylpyrimidine-5-carboxamide] | ≥ 500 nM | – |
| Cc1noc(-c2cnc(Nc3ccc4c(c3)CCN(C)C4=O)nc2N[C@H](CO)c2ccccc2)n1 [Compound 183, 6-[[4-[[(1S)-2-hydroxy-1-phenyl-ethyl]amino]-5-(3-methyl-1,2,4-oxadiazol-5-yl)pyrimidin-2-yl]amino]-2-methyl-3,4-dihydroisoquinolin-1-one] | < 50 nM | – |
| CCOC(=O)c1cnc(Nc2ccc(C(=O)N(C)C)c(OC)c2)nc1N[C@H](CO)c1ccccc1 [Compound 247, Ethyl 2-[4-(dimethylcarbamoyl)-3-methoxy-anilino]-4-[[(1S)-2-hydroxy-1-phenyl-ethyl]amino]pyrimidine-5-carboxylate] | 200 to 500 nM | – |
| CCOC(=O)c1cnc(Nc2ccc(C(F)(F)F)c(Cl)c2)nc1N[C@H](CO)c1ccccc1 [Compound 248, Ethyl 2-{[3-chloro-4-(trifluoromethyl)phenyl]amino}-4-{[(1S)-2-hydroxy-1-phenylethyl]amino}pyrimidine-5-carboxylate] | ≥ 500 nM | – |
| CCOC(=O)c1cnc(Nc2ccc(S(C)(=O)=O)c(F)c2)nc1N[C@H]1c2ccccc2C[C@H]1O [Compound 298, ethyl 2-(3-fluoro-4-methylsulfonyl-anilino)-4-[[(1S,2R)-2-hydroxyindan-1-yl]amino]pyrimidine-5-carboxylate] | ≥ 500 nM | – |
| CCOC(=O)c1cnc(Nc2ccc(S(C)(=O)=O)cc2OC)nc1N[C@H](CO)c1ccccc1 [Compound 299, Ethyl 4-{[(1S)-2-hydroxy-1-phenylethyl]amino}-2-{[2-methoxy-4-(methylsulfonyl)phenyl]amino}pyrimidine-5-carboxylate] | ≥ 500 nM | – |
| CCOC(=O)c1cnc(Nc2ccc3c(c2)CCN(C(C)C)C3=O)nc1N[C@H](CO)c1ccccc1 [Compound 316, Ethyl 4-[[(1S)-2-hydroxy-1-phenyl-ethyl]amino]-2-[(2-isopropyl-1-oxo-3,4-dihydroisoquinolin-6-yl)amino]pyrimidine-5-carboxylate] | ≥ 500 nM | – |
| CS(=O)(=O)c1ccc(Nc2ncc(C(=O)N3CCCC3)c(N[C@H](CO)c3ccccc3)n2)cc1F [Compound 371, [2-(3-fluoro-4-methylsulfonyl-anilino)-4-[[(1S)-2-hydroxy-1-phenyl-ethyl]amino]pyrimidin-5-yl]-pyrrolidin-1-yl-methanone] | ≥ 500 nM | – |
| CCOC(=O)c1cnc(Nc2ccc(S(C)(=O)=O)c(F)c2)nc1N1Cc2ccccc2CC1CO (stereo not drawn) [Compound 388, ethyl 2-(3-fluoro-4-methylsulfonyl-anilino)-4-[3-(hydroxymethyl)-3,4-dihydro-1H-isoquinolin-2-yl]pyrimidine-5-carboxylate] | ≥ 500 nM | – |
| CN(CCO)C(=O)c1cnc(Nc2ccc(S(C)(=O)=O)c(F)c2)nc1N[C@H](CO)c1ccccc1 [Compound 402, 2-(3-fluoro-4-methylsulfonyl-anilino)-N-(2-hydroxyethyl)-4-[[(1S)-2-hydroxy-1-phenyl-ethyl]amino]-N-methyl-pyrimidine-5-carboxamide] | ≥ 500 nM | – |
| O=C(NC1CCCC1)c1cnc(Nc2ccc(F)c(-c3ccccc3)c2)nc1N[C@H](CO)c1ccccc1 [Compound 440, N-cyclopentyl-2-[(6-fluorobiphenyl-3-yl)amino]-4-{[(1S)-2-hydroxy-1-phenylethyl]amino}pyrimidine-5-carboxamide] | ≥ 500 nM | – |
| CCOC(=O)c1cnc(Nc2ccc3c(c2)C(=O)NC(C(C)C)C(=O)N3)nc1N[C@H](CO)c1ccccc1 (stereo partly drawn) [Compound 467, Ethyl 4-[[(1S)-2-hydroxy-1-phenyl-ethyl]amino]-2-[(3-isopropyl-2,5-dioxo-3,4-dihydro-1H-1,4-benzodiazepin-7-yl)amino]pyrimidine-5-carboxylate] | ≥ 500 nM | – |
| O=C(NC1CCCC1)c1cnc(Nc2ccc(C(F)(F)F)c(Cl)c2)nc1N[C@H](CO)c1ccccc1 [Compound 472, 2-{[3-chloro-4-(trifluoromethyl)phenyl]amino}-N-cyclopentyl-4-{[(1S)-2-hydroxy-1-phenylethyl]amino}pyrimidine-5-carboxamide] | ≥ 500 nM | – |
| CCOC(=O)c1cnc(Nc2ccc3c(c2)CNC3=O)nc1N[C@H](CO)c1ccccc1 [Compound 565, ethyl 4-[[(1S)-2-hydroxy-1-phenyl-ethyl]amino]-2-[(1-oxoisoindolin-5-yl)amino]pyrimidine-5-carboxylate] | < 50 nM | – |
| N#Cc1cnc(Nc2ccc3c(c2)CCNC3=O)nc1N[C@H](CO)c1ccccc1 [Compound 567, 4-[[(1S)-2-hydroxy-1-phenyl-ethyl]amino]-2-[(1-oxo-3,4-dihydro-2H-isoquinolin-6-yl)amino]pyrimidine-5-carbonitrile] | ≥ 500 nM | – |
| CCOC(=O)c1cnc(Nc2ccc3c(c2)NC(=O)CCC3)nc1N[C@H](CO)c1ccccc1 [Compound 574, ethyl 4-[[(1S)-2-hydroxy-1-phenyl-ethyl]amino]-2-[(2-oxo-1,3,4,5-tetrahydro-1-benzazepin-8-yl)amino]pyimidine-5-carboxylate] | ≥ 500 nM | – |
| CCOC(=O)c1cnc(N(c2ccc3c(c2)CCCNC3=O)c2ncc(C(=O)OCC)c(N[C@H](CO)c3ccccc3)n2)nc1N[C@H](CO)c1ccccc1 [Compound 576, ethyl 2-[[5-ethoxycarbonyl-4-[[(1S)-2-hydroxy-1-phenyl-ethyl]amino]pyrimidin-2-yl]-(1-oxo-2,3,4,5-tetrahydro-2-benzazepin-7-yl)amino]-4-[[(1S)-2-hydroxy-1-phenyl-ethyl]amino]pyrimidin-5-carboxylate] | 50 to 200 nM | – |
| CS(=O)(=O)c1ccc(Nc2ncc3[nH]c(=O)n([C@H](CO)c4ccccc4)c3n2)cc1F [Compound 577, 2-(3-fluoro-4-methylsulfonyl-anilino)-9-[(1S)-2-hydroxy-1-phenyl-ethyl]-7H-purin-8-one] | ≥ 500 nM | – |
| C=Cc1noc(-c2cnc(Nc3ccc4c(c3)CCN(COCC[Si](C)(C)C)C4=O)nc2N[C@H](CO)c2ccccc2)n1 [Compound 580, 6-[[4-[[(1S)-2-hydroxy-1-phenyl-ethyl]amino]-5-(3-vinyl-1,2,4-oxadiazol-5-yl)pyrimidin-2-yl]amino]-2-(2-trimethylsilylethoxymethyl)-3,4-dihydroisoquinolin-1-one] | < 50 nM | – |
| Cc1noc(-c2cnc(Nc3ccc4c(c3)CCN(COC(=O)C(C)(C)C)C4=O)nc2N[C@H](CO)c2ccccc2)n1 [Compound 581, [6-[[4-[[(1S)-2-hydroxy-1-phenyl-ethyl]amino]-5-(3-methyl-1,2,4-oxadiazol-5-l)pyrimidin-2-yl]amino]-1-oxo-3,4-dihydroisoquinolin-2-yl]methyl 2,2-dimethylpropanoate] | – | IL-2, pg/mL stimulated (Jurkat cells; Table G: Jurkat, 1.0 μM of tested compounds): D (150 pg/mL≤IL-2) |
